In US20220218647A1, “DIETARY BUTYRATE” (SOCIETE DES PRODUITS NESTLE S.A., priority 2019, published 2022):

What was measured:
[1] = test system: rabbit gastric lipase (RGL) followed by porcine pancreatic lipase (PPL); assay: Sequential in vitro digestion in simulated gastric fluid (SGF) followed by SIF, pH-stat; format: in vitro ADME
From the text: (§1) An emulsion was then created using an ultrasonic probe homogeniser.

[2] = target: T1, porcine pancreatic lipase (PPL) (Sus scrofa, UniProt P00591); conditions: pig, 3 h, pH 11.5
T1 sequence (P00591 1-450): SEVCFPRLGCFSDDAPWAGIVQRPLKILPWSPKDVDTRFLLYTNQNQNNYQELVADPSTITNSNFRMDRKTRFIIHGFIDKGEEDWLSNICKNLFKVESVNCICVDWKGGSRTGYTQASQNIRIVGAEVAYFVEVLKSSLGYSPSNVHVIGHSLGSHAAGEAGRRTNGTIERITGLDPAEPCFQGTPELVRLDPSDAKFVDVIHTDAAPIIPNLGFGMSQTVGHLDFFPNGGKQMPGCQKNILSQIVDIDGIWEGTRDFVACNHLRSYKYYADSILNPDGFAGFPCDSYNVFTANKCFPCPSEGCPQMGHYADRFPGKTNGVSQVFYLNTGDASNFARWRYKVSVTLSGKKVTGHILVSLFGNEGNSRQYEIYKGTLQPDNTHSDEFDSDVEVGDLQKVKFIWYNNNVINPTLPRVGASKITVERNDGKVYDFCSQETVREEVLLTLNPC
T1 sequence (P02703 23-112 partner): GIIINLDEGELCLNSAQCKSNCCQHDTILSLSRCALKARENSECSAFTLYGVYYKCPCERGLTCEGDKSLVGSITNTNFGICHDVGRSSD
From the text: Because many fatty acids are only partially ionised at pH 6.8, direct titration gives only partial picture of the extent of lipid digestion, instead back titration to pH 11.5 or GC-FAME analysis is required to estimate the full extent of digestion.

[3] = target: T1, porcine pancreatic lipase (PPL); assay: In vitro lipid digestion in simulated intestinal fluid (SIF), pH-stat; format: in vitro ADME; set-up: by porcine pancreatic lipase (from pancreatin); from tissue; host or cells: pancreatin (pig pancreas extract); conditions: SIF alone; emulsion containing 200 mg fat, pH 6.8, 37° C.
From the text: as §1

initial lipolysis rate in SIF compartment ([1]; SGF-SIF sequential digestion, 200 mg fat): 44.1 ± 8.8 µmol/min | hydrolysis in the stomach ([1]; gastric compartment of the model): extensive hydrolysis | lipolysis by gastric lipase ([1]; indicated by decreased total fatty acid release during SIF lipolysis after pre-exposure to RGL in SGF): ~60% | extent of digestion [2]: 101.5±0.9% | initial rate of lipolysis [3]: 223 ± 59 µmol/min
SMILES: CCCC(=O)OCC(COC(=O)CCC)OC(=O)CCC [tributyrin]
